Among the data in ChEMBL document CHEMBL3046388, “Antifungal and insecticidal activities of daphnodorins A, B and C” (1987) are mortality and Activity values, retold here.

SMILES strings stand for the structures.

Type in all cases: functional
Assay [1] relates to Tetranychus urticae. Description: Insecticidal activity against adult and eggs of Tetranychus urticae (two-spotted spider mite) assessed as mortality at 500 ppm sprayed onto organism at 25 to 27 degC measured after 5 days. The settings on record: 120 h.
Assay [2] concerns Botrytis cinerea. In words: Antifungal activity against Botryotinia fuckeliana inoculated in compound treated Pisum sativum var. arvense POIL. leaves assessed as protective value at 27 degC at 500 ppm by spraying method.
Assay [3] deals with Blumeria graminis. Description: Antifungal activity against Blumeria graminis inoculated in compound treated Triticum aestivum leaves assessed as protective value at 27 degC at 500 ppm by spraying method.
In assay [4] the test system is Rhizoctonia solani. In words: Antifungal activity against Rhizoctonia solani inoculated in compound treated Oryza sativa leaves assessed as protective value at 27 degC at 500 ppm by spraying method.
In assay [5] the test system is Callosobruchus chinensis. Description: Insecticidal activity against adult Callosobruchus chinensis in compound treated ingenmame leaves assessed as mortality at 500 ppm at 25 to 27 degC measured after 5 days. Particulars: 120 h.
In assay [6] the test system is Nilaparvata lugens. In words: Insecticidal activity against third-instar larvae of Nilaparvata lugens (brown planthopper) in compound treated Oriza sativa stem assessed as mortality at 500 ppm at 25 to 27 degC measured after 5 days by stem dip method. The settings on record: 120 h.
The test system of assay [7] is Puccinia recondita. Description: Antifungal activity against Puccinia recondita inoculated in compound treated Triticum aestivum leaves assessed as protective value at 27 degC at 500 ppm by spraying method.
In assay [8] the test system is Phytophthora infestans. Description: Antifungal activity against Phytophthora infestans inoculated in compound treated Lycopersicon esculentum MILL, leaves assessed as protective value at 27 degC at 500 ppm by spraying method.
Assay [9] concerns Spodoptera litura. Description: Insecticidal activity against third-instar larvae Spodoptera litura in compound treated cabbage leaves assessed as mortality at 500 ppm at 25 to 27 degC measured after 5 days by leaf dip method. The settings on record: foliar, 120 h.
Assay [10] deals with Pyricularia oryzae. Description: Antifungal activity against Magnaporthe oryzae inoculated in compound treated Oryza sativa leaves assessed as protective value at 27 degC at 500 ppm by spraying method.
The subject of assay [11] is Pyricularia oryzae. Description: Antifungal activity against Magnaporthe oryzae inoculated in compound treated Oryza sativa leaves assessed as residual effect on leaves at 27 degC at 500 ppm by spraying method.
The test system of assay [12] is Pyricularia oryzae. Description: Antifungal activity against Magnaporthe oryzae inoculated in compound treated Oryza sativa leaves assessed as protective value at 27 degC at 10 ppm by spraying method.
Assay [13] has as its system Pyricularia oryzae. In words: Antifungal activity against Magnaporthe oryzae inoculated in compound treated Oryza sativa leaves assessed as protective value at 27 degC at 200 ppm by spraying method.
In assay [14] the test system is Pyricularia oryzae. In words: Antifungal activity against Magnaporthe oryzae inoculated in compound treated Oryza sativa leaves assessed as protective value at 27 degC at 50 ppm by spraying method.

For `O=C(c1c(O)cc(O)cc1O)c1c(-c2ccc(O)cc2)oc2cc(O)c3c(c12)O[C@H](c1ccc(O)cc1)[C@@H](O)C3` [DAPHNODORIN B], the mortality at 500 ppm is 45% in assay [1], 30% in assay [5], 0% in [6] and 30% in assay [9]. The Activity in [2] was determined as 0%; in [3], 0%; in [4], 0%; in assay [7] it was 0%; in assay [8], 0%; in [10] it was 79%.
Consider `O=C1c2c(O)cc(O)cc2O[C@]12c1c(cc(O)c3c1O[C@H](c1ccc(O)cc1)CC3)O[C@H]2c1ccc(O)cc1` [DAPHNODORIN C], for which the mortality at 500 ppm worked out at 11% in assay [1], 10% in assay [5], 0% in assay [6] and 10% in assay [9]. For the same compound, the Activity came to 40% in assay [11]; 0% in assay [2]; 40% in assay [12]; 0% in assay [3]; 0% in assay [4]; 89% in [13]. For the same compound, the Activity was 69% in assay [14], 0% in assay [7], 0% in assay [8] and 90% in assay [10].
For `O=C(c1c(O)cc(O)cc1O)c1c(-c2ccc(O)cc2)oc2cc(O)c3c(c12)O[C@H](c1ccc(O)cc1)CC3` [DAPHNODORIN A], the mortality at 500 ppm in assay [1] came to 30%; in [5], 0%; in assay [6] it was 10%; in [9], 20%. The Activity is given as 48% in assay [11]; 0% in [2]; 58% in assay [12]; 0% in assay [3]; 0% in [4]; 93% in [13]. Moreover, the Activity came out at 83% in [14], 0% in assay [7], 0% in assay [8] and 95% in assay [10].

The mortality is the share of the test organisms that died.
